Reference: patent US20170202932A1, “METHODS FOR INHIBITING NEURON APOPTOSIS AND NECROSIS” (NEWSOUTH INNOVATIONS PTY LIMITED, priority 2012, published 2017)

Tests used:
[1] = tested on: mouse cerebellar brain slices; test: Oxygen glucose deprivation (OGD) in organotypic cerebellar brain slices, propidium iodide staining; assay type: cell-based; details: genistein 200 μM
Protocol: TRPC3c-mediated brain injury arising from transient oxygen glucose deprivation (OGD) was evaluated in organotypic cerebellar brain slices using the TRPC channel blocker Genistein. The brain slices (400 μm) were prepared as described in Example 5. Mice ([…] strain, 6-8 weeks old) were anaesthetized with pentobarbital and decapitated. The brain was removed and submerged in ice cold modified artificial cerebral spinal fluid (ACSF) solution containing 4 mM KCl, 5 mM MgCl2, 1 mM CaCl2, 26 mM NaHCO3, 10 mM glucose, 246 mM sucrose equilibrated with 95% CO2, 5% O2. Slices were cut with a VT1200 vibratome (Leica, Germany) and were allowed to recover in culture medium (75% Minimum Essential Medium (MEM), 25% heat-inactivated horse serum, 25 mM HEPES, 1 mM glutamine, 27.7 mM glucose) for at least 1 h in a tissue culture incubator (37° C., 5% CO2 in air). Hurtado de Mendoza et al. (2011) J Vis Exp. (51). (pii):2564).
For OGD-induced neuronal loss, the brain slices were placed in an anaerobic chamber (Coy Laboratory Products, USA; 100% N2) in OGD medium (75% MEM, 25% Hanks Buffered Salt Solution, 1 mM glutamine) Radley et a. (2012). Neurosci Lett. 506 (1):131-5). Controls included slices placed directly into culture medium in a tissue culture incubator (37° C., 5% CO2 in air). Slices were exposed to OGD for 0, 15 and 30 minutes, with or without 200 μM genistein (n=2 for each condition). […]

[2] = target: T1, Purkinje cell TRPC3 channels (Mus musculus, UniProt Q9QZC1, DEL811-838); test: Whole-cell voltage clamp of DHPG-evoked inward current in Purkinje cells of cerebellar brain slices; assay type: cell-based
T1 construct: from tissue; host or cells: parasagittal cerebellar brain slices, C129-SvEv mice, Purkinje neurons
T1 sequence (Q9QZC1 with tags, fused parts or gaps DEL811-838): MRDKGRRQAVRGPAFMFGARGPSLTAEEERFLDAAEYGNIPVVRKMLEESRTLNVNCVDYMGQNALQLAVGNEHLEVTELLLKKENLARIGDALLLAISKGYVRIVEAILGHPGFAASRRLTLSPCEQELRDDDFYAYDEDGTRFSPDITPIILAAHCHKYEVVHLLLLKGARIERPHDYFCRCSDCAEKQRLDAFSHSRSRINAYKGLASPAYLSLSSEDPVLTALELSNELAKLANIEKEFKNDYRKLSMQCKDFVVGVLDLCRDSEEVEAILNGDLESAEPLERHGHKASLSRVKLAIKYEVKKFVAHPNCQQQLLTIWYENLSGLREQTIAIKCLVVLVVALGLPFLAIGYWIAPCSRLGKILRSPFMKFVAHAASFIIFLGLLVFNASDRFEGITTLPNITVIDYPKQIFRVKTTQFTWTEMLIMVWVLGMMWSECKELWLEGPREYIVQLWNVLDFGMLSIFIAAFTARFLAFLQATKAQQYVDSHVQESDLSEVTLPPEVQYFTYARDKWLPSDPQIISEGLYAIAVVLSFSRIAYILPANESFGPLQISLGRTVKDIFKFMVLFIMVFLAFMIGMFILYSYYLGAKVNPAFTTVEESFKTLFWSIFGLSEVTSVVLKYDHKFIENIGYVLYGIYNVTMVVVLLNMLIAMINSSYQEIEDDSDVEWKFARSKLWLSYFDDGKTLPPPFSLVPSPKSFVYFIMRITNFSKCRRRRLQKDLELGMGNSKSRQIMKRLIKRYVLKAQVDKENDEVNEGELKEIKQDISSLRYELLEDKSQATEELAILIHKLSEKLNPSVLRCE
Protocol: TRPC3c-mediated current in cerebellar Purkinje cells was then assessed. Parasagittal cerebellar brain slices (400 μm) were prepared using standard techniques (Power and Sah, (2007) J. Physiol. 580:835-57). Mice (C129-SvEv strain, 4-8 weeks old) were anaesthetized with pentobarbital and decapitated. The brain was removed and submerged in an ice cold modified artificial cerebral spinal fluid (ACSF) solution containing 119 mM NaCl, 2.5 mM KCl, 3.3 mM MgCl2, 0.5 mM CaCl2, 1.0 mM Na2PO4, 26.2 mM NaHCO3, 11 mM glucose, equilibrated with 95% CO2, 5% 02. Slices were cut with a VT1200 vibratome (Leica, Germany) and were allowed to recover for at least 1 h at room temperature in a standard ACSF solution containing 119 mM NaCl, 2.5 mM KCl, 1.3 mM MgCl2, 2.5 mM CaCl2, 1.0 mM Na2PO4, 26.2 mM NaHCO3, 11 mM glucose, equilibrated with 95% CO2, 5% O2.
For recording, slices were transferred to the stage of a Zeiss Examiner D1 microscope and continuously perfused with ACSF heated to 30° C. Whole-cell patch-clamp recordings were made from the soma of Purkinje neurons identified using infrared differential interference contrast videomicroscopy. Patch pipettes (3-5 MΩ) were filled with an internal solution containing 135 mM Cesium methanesulfonate, 8 mM NaCl, 10 mM HEPES, 2 mM Mg2ATP, 0.3 mM Na3GTP, 0.1 spermine (pH 7.3 with KOH, osmolarity 290-300 mosmol l^−1). Alexa 594 (30 μM; Invitrogen, U.S.A.) was added to the internal solution to visualise the dendritic tree. Whole-cell currents at a holding potential of −70 mV were amplified with an Axopatch 2B amplifier (Molecular Devices, U.S.A.), filtered at 5 kHz and digitized at 20 kHz with a Digidata1440 (Molecular Devices), and controlled using pClamp 10.2 Software (Molecular Devices). Whole-field fluorescence measurements were made with a 40× water immersion objective (NA 1.0; Zeiss, Germany) using a F43 filter block; excitation 545/25 nm; dichroic 570 nm, emission 605/70 nm. Images were acquired with a cooled CCD camera (ProgRes MF-Cool, Jenoptik, Germany) DHPG (50 μM) was applied onto the dendritic field by focal pressure application (in ACSF) through a patch pipette.

peak of the DHPG-evoked current ([2]; 15 min after genistein 100 μM, before genistein −400±55 pA): −77±50 pA | integrated area of the DHPG-evoked current (net charge) ([2]; after genistein 100 μM, before genistein −878±11 pC): −74±105 pC | time over which block of the current was produced ([2]; genistein 100 μM bath application): 10 to 15 min | reduction of DHPG-evoked Purkinje cell inward current ([2]; genistein 100 μM, DHPG 50 μM, holding −70 mV, n=3): 90±12%
SMILES: O=c1c(-c2ccc(O)cc2)coc2cc(O)cc(O)c12 [genistein, 4′, 5,7-trihydroxyisoflavone]
propidium iodide fluorescence in granule cell layer and molecular layer after OGD [1]: reduced propidium iodide fluorescence | neuronal loss and oedema in the Purkinje cell layer after OGD ([1]; 15 mins and 30 mins OGD, n=2 slices per condition): provided protection from the neuronal loss and oedema in the PCL
